Data reported in patent EP4023291A1, “FAT METABOLISM PROMOTER” (Asahi Group Holdings, Ltd., priority 2019, dated 2021).

Legend:
TRPA1 = target: T1, TRPA1 (Homo sapiens, UniProt O75762); assay: Test 9: TRPA1 activity test, cells with forced expression of TRPA1; assay type: cell-based; conditions: for Δ RFU in cells with forced expression of TRPA1: maximum values, average ± standard deviation, concentration after adding per Table 7 (10.2-28.2 ppm); for Δ RFU in cells with forced expression of TRPA1 / Δ RFU in non-transformed cells: ratio of maximum ΔRFU values, concentration after adding per Table 7
T1 construct: expressed in transfected cells; host or cells: HEK293T cells, transient transfection with Lipofectamine 2000
Method: In the present test, first, human embryonic HEK293T cells were first suspended in DMEM medium to which penicillin-streptomycin (manufactured by Thermo Fisher Scientific, Inc.) and fetal bovine serum (manufactured by Sigma-Aldrich Co. LLC) were added to reach concentrations of 100 Unit/mL, 100 µg/mL, and 10%, respectively, seeded in a 96-well plate at a volume of 100 µL/well, and cultured under conditions of 5% CO2 and 37°C until a cell density reached 70 to 90%.
Thereafter, the DMEM medium in each well was completely removed, to which OptiMEM medium (manufactured by Thermo Fisher Scientific, Inc.) containing the gene transfer reagent Lipofectamine 2000 (manufactured by Thermo Fisher Scientific, Inc.) and a hTRPA1 gene expression plasmid was added at a volume of 50 µL/well. Then, culture was performed under conditions of 37°C and 5% CO2 for approximately 24 hours to transfer the TRPA1 gene into the HEK293T cells. The contents of Lipofectamine 2000 and the hTRPA1 gene expression plasmid per 50 µL of the OptiMEM medium were 0.3 µL and 400 ng, respectively. The TRPA1 gene can be confirmed with a DNA database such as GenBank.
When the density of the HEK293T cells transfected in the described manner (hereinafter, also referred to as "cells with forced expression of TRPA1") reached 90 to 100%, FLIPR Calcium 6 Assay Kit (manufactured by Molecular Devices, LLC.), a calcium-sensitive fluorescent dye, was added at a volume of 50 µL/well, and culture was performed under conditions of 37°C and 5% CO2 for 2 hours. Here, the expression of TRPA1 on cell membranes was confirmed by response to cinnamaldehyde (manufactured by Wako Pure Chemical Industries, Ltd.), which is a known TRPA1 ligand. DMSO was used for dilution of cinnamaldehyde, and the DMSO concentration in each well was set to 0.1% in view of cytotoxicity.
Ethyl caproate was added to HEPES buffer (10 mM HEPES, 130 mM NaCl, 5 mM KCl, 10 mM glucose, 2 mM CaCl2·2H2O, 1.2 mM MgCl2·6H2O, pH = 7.40), and thus a test solution of Example 9 containing ethyl caproate in a concentration of 255 ppm was obtained. For a negative control (N.C.), HEPES buffer was used as a test solution of Comparative Example 6. Measurement of fluorescence intensity for the cells with forced expression of TRPA1 was initiated, and, 20 seconds thereafter, 50-µL portions of each of the test solutions prepared were added to three wells. After the lapse of a predetermined period of time, the measurement of fluorescence intensity was completed, and ratios of fluorescence intensity at each time after addition of a test solution as the average of fluorescence intensity before addition of a test solution was assumed as 1 (hereinafter, also referred to as "RFU (relative fluorescence units)") were determined from measurements of fluorescence intensity. Further, change rates in RFU before and after addition of a test solution (hereinafter, also referred to as "ΔRFU") were determined at each time after addition of a test solution. Fluorescence intensity was measured by using a FlexStation 3 (manufactured by Molecular Devices, LLC.). The measurement of fluorescence intensity was performed at room temperature, and each test solution was used for adding to wells at room temperature, too.
(§1) In the present test, test solutions of Examples 13 to 28 and Comparative Examples 9 to 14 described later were used in place of the test solutions used in First Testing Method of Test 5. Except that, the amount of change in RFU before and after addition of each test solution (ΔRFU) was determined for cells with forced expression of TRPA1 and non-transformed cells with the same method as First Testing Method of Test 5.
The test solutions of Examples 13 to 28 and Comparative Examples 10 to 14 used in the present test were each obtained by adding a compound listed in Table 7 into HEPES buffer. […]

non-transformed cells = assay: Test 9: TRPA1 activity test, non-transformed cells; assay type: cell-based, human; conditions: maximum values, average ± standard deviation; concentration after adding per Table 7 (10.2-28.2 ppm)
Method: Also for HEK293T cells without transfer of the TRPA1 gene (hereinafter, also referred to as "non-transformed cells"), as a reference, 50 µL of the test solution of Example 9 and 50 µL of the test solution of Comparative Example 6 were added with the same method as performed for the cells with forced expression of TRPA1, and ΔRFU was determined.
as §1
The test solutions of Examples 13 to 28 and Comparative Examples 10 to 14 used in the present test were each obtained by adding a compound listed in Table 7 into HEPES buffer. The octanol/water partition coefficient (log Pow) of each compound listed in Table 7 was calculated with XlogP (Shanghai Institute of Organic Chemistry, Chinese Academy of Sciences, http://WWW.sio-ccbg.ac.cn/software/xlogp3/), which is software using the XlogP3 algorithm. Each test solution was added as 50-µL portions to wells, and the concentrations of the compounds were set to concentrations shown in Table 7. HEPES buffer was used as the test solution of Comparative Example 9 for a negative control (N.C.), and added as 50-µL portions to wells.
Table 7 and Figure 18 show average ± standard deviation of maximum values of ΔRFU. In the present test, SoftMax Pro Vr. 6 (manufactured by Molecular Devices, LLC.) and Excel (manufactured by Microsoft Corporation) were used for data analysis.

T1 sequence (O75762 whole entry): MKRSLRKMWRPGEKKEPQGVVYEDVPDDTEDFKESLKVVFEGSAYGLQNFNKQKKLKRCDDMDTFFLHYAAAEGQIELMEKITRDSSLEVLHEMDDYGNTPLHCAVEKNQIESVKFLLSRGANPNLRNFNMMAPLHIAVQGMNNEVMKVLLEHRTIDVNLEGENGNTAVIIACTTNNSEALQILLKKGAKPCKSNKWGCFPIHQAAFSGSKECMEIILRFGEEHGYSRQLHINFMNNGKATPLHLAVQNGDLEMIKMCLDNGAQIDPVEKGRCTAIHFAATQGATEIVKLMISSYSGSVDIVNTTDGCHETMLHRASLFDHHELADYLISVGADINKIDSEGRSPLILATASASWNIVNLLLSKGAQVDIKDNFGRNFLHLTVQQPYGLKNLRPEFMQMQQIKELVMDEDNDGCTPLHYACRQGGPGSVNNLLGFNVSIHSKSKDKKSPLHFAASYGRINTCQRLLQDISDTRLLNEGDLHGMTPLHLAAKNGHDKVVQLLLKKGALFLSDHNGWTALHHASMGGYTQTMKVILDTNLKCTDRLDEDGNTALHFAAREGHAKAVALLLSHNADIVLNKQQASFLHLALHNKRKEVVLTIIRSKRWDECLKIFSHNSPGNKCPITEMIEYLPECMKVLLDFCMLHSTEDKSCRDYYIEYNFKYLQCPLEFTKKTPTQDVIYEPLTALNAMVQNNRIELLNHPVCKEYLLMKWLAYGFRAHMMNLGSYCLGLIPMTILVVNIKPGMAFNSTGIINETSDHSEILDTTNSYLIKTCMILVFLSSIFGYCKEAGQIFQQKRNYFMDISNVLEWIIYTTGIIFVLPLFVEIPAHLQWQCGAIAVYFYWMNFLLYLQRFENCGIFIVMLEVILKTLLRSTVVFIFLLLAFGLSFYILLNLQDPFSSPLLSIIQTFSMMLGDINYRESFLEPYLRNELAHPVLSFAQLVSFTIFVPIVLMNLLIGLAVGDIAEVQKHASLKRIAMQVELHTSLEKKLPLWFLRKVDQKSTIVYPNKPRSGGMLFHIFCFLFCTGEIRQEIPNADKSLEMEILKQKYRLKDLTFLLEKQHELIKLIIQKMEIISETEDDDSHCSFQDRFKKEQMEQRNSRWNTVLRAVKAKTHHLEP

Compound	Δ RFU in cells with forced expression of TRPA1 (TRPA1)	Δ RFU in cells with forced expression of TRPA1 / Δ RFU in non-transformed cells (TRPA1)	Δ RFU in non-transformed cells (non-transformed cells)
CCOC(C)=O [Comparative Example 10, Ethyl acetate, reference compound]	0.2 ± 0.1	0.7	0.3 ± 0.0
CCOC(=O)CC [Comparative Example 12, Ethyl propionate, reference compound]	0.3 ± 0.0	0.9	0.3 ± 0.1
CCCCCCCCCCCC(=O)OCC [Comparative Example 14, Ethyl laurate, reference compound]	0.2 ± 0.0	0.8	0.2 ± 0.0
CC(=O)OCCC(C)C [Example 13, Isoamyl acetate]	0.7 ± 0.0	3.4	0.2 ± 0.0
CCC(C)COC(C)=O (stereo not drawn) [Example 15, 2-Methylbutyl acetate]	0.6 ± 0.0	2.9	0.2 ± 0.0
CCC(=O)OCCC(C)C [Example 17, Isoamyl propionate]	1.5 ± 0.5	12.4	0.1 ± 0.0
CCCC(=O)OCCC(C)C [Example 18, Isoamyl butyrate]	2.0 ± 0.4	19.3	0.1 ± 0.0
CCCCC(=O)OCC [Example 19, Ethyl valerate]	0.6 ± 0.1	5.6	0.1 ± 0.0
CCOC(=O)CCC(C)C [Example 20, Ethyl 4-methylvalerate]	2.0 ± 0.1	27.6	0.1 ± 0.0
CCCCCC(=O)OC [Example 21, Methyl caproate]	1.2 ± 0.2	5.4	0.2 ± 0.0
CCCCCC(=O)OCC [Example 22, Ethyl caproate]	2.2 ± 0.8	12.7	0.2 ± 0.0
CCCCCC(=O)OCCC(C)C [Example 25, Isoamyl caproate]	3.0 ± 0.2	16.2	0.2 ± 0.0

More lines, main results first:

Δ RFU in cells with forced expression of TRPA1 (TRPA1)	Δ RFU in cells with forced expression of TRPA1 / Δ RFU in non-transformed cells (TRPA1)	Compound	Δ RFU in non-transformed cells (non-transformed cells)
0.2 ± 0.0	0.8	CCCOC(C)=O [Comparative Example 11, Propyl acetate, reference compound]	0.3 ± 0.0
0.2 ± 0.1	0.6	CCCCCCCC(=O)OCCC(C)C [Comparative Example 13, Isoamyl caprylate, reference compound]	0.3 ± 0.0
0.8 ± 0.1	12.1	CCCCCOC(C)=O [Example 14, Pentyl acetate]	0.1 ± 0.0
3.5 ± 0.7	127.8	CCCCCCCOC(C)=O [Example 16, Heptyl acetate]	0.0 ± 0.0
2.7 ± 1.1	12.9	CCCCCC(=O)OCCC [Example 23, Propyl caproate]	0.2 ± 0.0
4.1 ± 0.3	29.1	CCCCCC(=O)OCCCC [Example 24, Butyl caproate]	0.1 ± 0.0
3.5 ± 1.1	12.8	CCCCCOC(=O)CCCCC [Example 26, Pentyl caproate]	0.3 ± 0.1
0.7 ± 0.1	8.3	CCCCCCCC(=O)OC [Example 27, Methyl caprylate]	0.1 ± 0.0
2.3 ± 0.4	19.0	CCCCCCCC(=O)OCC [Example 28, Ethyl caprylate]	0.1 ± 0.0
